From PubChem BioAssay AID1963444 (Molecular Pharmacology Branch, DTP, NCI, 2024)

Tested on: HSSY-II complex spheroid growth, percent test/control
Test: Anticancer human tumor HSSY-II cell line growth inhibition [Asc];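 also: spheroids exposed to drug for 7 days before reading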
Conditions: for IC50: curve of first compound; for viability, T/C: stronger effect = lower value
How it was run: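 Concentration series start at each agent's clinical Cmax, or at 10 microM when none is established, and drop in half-log steps; agents are applied alone or together to complex spheroids built with HUVEC and hMSC.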

[1] = second compound 0.03 µM, first compound 0.0316 µM
[2] = second compound 0.03 µM, first compound 0.1 µM
[3] = second compound 0.03 µM, first compound 0.316 µM
[4] = second compound 0.03 µM, first compound 1 µM
[5] = second compound 0.03 µM, first compound 3.16 µM
[6] = second compound 0.03 µM, first compound 10 µM
[7] = second compound 0.0949 µM, first compound 0.0316 µM
[8] = second compound 0.0949 µM, first compound 0.1 µM
[9] = second compound 0.0949 µM, first compound 0.316 µM
[10] = second compound 0.0949 µM, first compound 1 µM
[11] = second compound 0.0949 µM, first compound 3.16 µM
[12] = second compound 0.0949 µM, first compound 10 µM
[13] = second compound 0.3 µM, first compound 0.0316 µM
[14] = second compound 0.3 µM, first compound 0.1 µM
[15] = second compound 0.3 µM, first compound 0.316 µM
[16] = second compound 0.3 µM, first compound 1 µM
[17] = second compound 0.3 µM, first compound 3.16 µM
[18] = second compound 0.3 µM, first compound 10 µM
[19] = second compound 0.949 µM, first compound 0.0316 µM
[20] = second compound 0.949 µM, first compound 0.1 µM
[21] = second compound 0.949 µM, first compound 0.316 µM
[22] = second compound 0.949 µM, first compound 1 µM
[23] = second compound 0.949 µM, first compound 3.16 µM
[24] = second compound 0.949 µM, first compound 10 µM
[25] = second compound 3 µM, first compound 0.0316 µM
[26] = second compound 3 µM, first compound 0.1 µM
[27] = second compound 3 µM, first compound 0.316 µM
[28] = second compound 3 µM, first compound 1 µM
[29] = second compound 3 µM, first compound 3.16 µM
[30] = second compound 3 µM, first compound 10 µM

SMILES | IC50 (second compound 0.03 µM) [nM] | IC50 (second compound 0.0949 µM) [nM] | IC50 (second compound 0.3 µM) [nM] | IC50 (second compound 0.949 µM) [nM] | IC50 (second compound 3 µM) [nM] | viability, T/C [1] [%] | viability, T/C [2] [%] | viability, T/C [3] [%] | viability, T/C [4] [%] | viability, T/C [7] [%] | viability, T/C [8] [%] | viability, T/C [9] [%] | viability, T/C [10] [%] | viability, T/C [13] [%] | viability, T/C [14] [%] | viability, T/C [15] [%] | viability, T/C [16] [%] | viability, T/C [19] [%] | viability, T/C [20] [%] | viability, T/C [21] [%] | other results
C#Cc1c(F)ccc2cc(O)cc(-c3ncc4c(N5CC6CCC(C5)N6)nc(OCC56CCCN5CC(F)C6)nc4c3F)c12 (stereo not given) + CCN1C(C(=O)NC23CCC(C(=O)O)(CC2)CC3)C(c2cccc(Cl)c2F)C2(C(=O)Nc3cc(Cl)ccc32)C12CCCCC2 | 5960 | 3250 | < 31.6 | < 31.6 | < 31.6 | 91.6 | 96.6 | 91.1 | 90.7 | 52.4 | 62.3 | 65.7 | 59 | 24.8 | 27.5 | 26 | 20.6 | 7.03 | 7.37 | 6.79 | viability, T/C [5]: 80.8%; viability, T/C [6]: 24.9%; viability, T/C [11]: 50.6%; viability, T/C [12]: 9.38%; viability, T/C [17]: 20.2%; viability, T/C [18]: 0.94%; viability, T/C [22]: 5.65%; viability, T/C [23]: 5.67%; viability, T/C [24]: 0.22%; viability, T/C [25]: 2.13%; viability, T/C [26]: 2.33%; viability, T/C [27]: 2.2%; viability, T/C [28]: 1.74%; viability, T/C [29]: 1.34%; viability, T/C [30]: 0.27%
C=C(F)C(=O)N1CCN(c2nc(OCC3CCCN3C)nc3c2CCN(c2cccc4cccc(Cl)c24)C3)CC1CC#N (stereo not given) + CCN1C(C(=O)NC23CCC(C(=O)O)(CC2)CC3)C(c2cccc(Cl)c2F)C2(C(=O)Nc3cc(Cl)ccc32)C12CCCCC2 | 1090 | 340 | < 31.6 | < 31.6 | < 31.6 | 93.7 | 82.3 | 77.1 | 55.2 | 64.5 | 66.6 | 49.1 | 26.5 | 26.3 | 23.1 | 19.9 | 13.4 | 8.79 | 7.11 | 6.61 | viability, T/C [5]: 1.72%; viability, T/C [6]: 0.13%; viability, T/C [11]: 0.75%; viability, T/C [12]: 0.1%; viability, T/C [17]: 0.42%; viability, T/C [18]: 0.12%; viability, T/C [22]: 3.73%; viability, T/C [23]: 0.07%; viability, T/C [24]: 0.12%; viability, T/C [25]: 3.47%; viability, T/C [26]: 2.72%; viability, T/C [27]: 2.77%; viability, T/C [28]: 1.35%; viability, T/C [29]: 0.15%; viability, T/C [30]: 0.21%
C=CC(=O)N1CCN(c2nc(=O)n(-c3c(C)ccnc3C(C)C)c3nc(-c4c(O)cccc4F)c(F)cc23)C(C)C1 (stereo not given) + CCN1C(C(=O)NC23CCC(C(=O)O)(CC2)CC3)C(c2cccc(Cl)c2F)C2(C(=O)Nc3cc(Cl)ccc32)C12CCCCC2 | 7300 | 2580 | < 31.6 | < 31.6 | < 31.6 | 87.5 | 89.6 | 89.5 | 88 | 60.3 | 63.9 | 65.2 | 62.7 | 25.3 | 26.3 | 26 | 23.6 | 7.57 | 7.88 | 7.75 | viability, T/C [5]: 84.7%; viability, T/C [6]: 36.9%; viability, T/C [11]: 47.3%; viability, T/C [12]: 18.4%; viability, T/C [17]: 20.9%; viability, T/C [18]: 9.83%; viability, T/C [22]: 6.93%; viability, T/C [23]: 6.22%; viability, T/C [24]: 6.06%; viability, T/C [25]: 2.1%; viability, T/C [26]: 2.5%; viability, T/C [27]: 2.3%; viability, T/C [28]: 2.77%; viability, T/C [29]: 2.35%; viability, T/C [30]: 1.69%
CNC(C)C(=O)NC1CN(S(=O)(=O)c2cccc(S(=O)(=O)N3CCC4CCC(C(=O)NC(c5ccccc5)c5ccccc5)N4C(=O)C(NC(=O)C(C)NC)C3)c2)CCC2CCC(C(=O)NC(c3ccccc3)c3ccccc3)N2C1=O (stereo not given) + CCN1C(C(=O)NC23CCC(C(=O)O)(CC2)CC3)C(c2cccc(Cl)c2F)C2(C(=O)Nc3cc(Cl)ccc32)C12CCCCC2 | > 1000 | 3.28 | < 3.16 | < 3.16 | < 3.16 | 65.6 | 69.1 | 66.8 | 63.1 | 36.8 | 39.5 | 39.1 | 37.5 | 13.3 | 11 | 14.3 | 11.2 | 1.39 | 1.14 | 0.75 | viability, T/C (second compound 0.03 µM, first compound 0.00316 µM): 76.3%; viability, T/C (second compound 0.03 µM, first compound 0.01 µM): 81.6%; viability, T/C (second compound 0.0949 µM, first compound 0.00316 µM): 49.2%; viability, T/C (second compound 0.0949 µM, first compound 0.01 µM): 48.4%; viability, T/C (second compound 0.3 µM, first compound 0.00316 µM): 13.5%; viability, T/C (second compound 0.3 µM, first compound 0.01 µM): 13.5%; viability, T/C (second compound 0.949 µM, first compound 0.00316 µM): 2.72%; viability, T/C (second compound 0.949 µM, first compound 0.01 µM): 1.74%; viability, T/C [22]: 1.15%; viability, T/C (second compound 3 µM, first compound 0.00316 µM): 0.64%; viability, T/C (second compound 3 µM, first compound 0.01 µM): 0.51%; viability, T/C [25]: 0.48%; viability, T/C [26]: 0.47%; viability, T/C [27]: 0.62%; viability, T/C [28]: 0.46%
